Test results: patent publication US4248863A, “Antibiotics saframycins A, B, C, D and E and process for producing the same” (priority 1977, dated 1981)
Values after ≈ are worked out from the molar mass of the structure shown.

Tests used:
[1] = system: Corynebacterium dephtheriae; experiment: Antimicrobial spectrum, MIC (Table 4); format: cell-based; settings: 1% glucose nutrient agar, 37° C., 24 or 48 hours
Bacillus cereus = experiment: Antimicrobial spectrum, MIC (Table 4); format: cell-based; settings: 1% glucose nutrient agar, 37° C., 24 or 48 hours
Staphylococcus citreus = experiment: Antimicrobial spectrum, MIC (Table 4); format: cell-based; settings: 1% glucose nutrient agar, 37° C., 24 or 48 hours
[2] = system: Shigella dysenteriae Shiga; experiment: microbe, parasite or virus in culture; format: cell-based; settings: 1% glucose nutrient agar, 37° C., 24 or 48 hours
Mycobacterium avium = experiment: Antimicrobial spectrum, MIC (Table 4); format: cell-based; settings: 3% glycerol nutrient agar for acid-fast bacteria, 37° C., 24 or 48 hours
Pseudomonas aeruginosa = experiment: Antimicrobial spectrum, MIC (Table 4); format: cell-based; settings: 1% glucose nutrient agar, 37° C., 24 or 48 hours
Rhodotorula glutinis = experiment: Antimicrobial spectrum, MIC (Table 4); settings: Sabouraud.dextrose.agar, 27° C., 48 hours
Mycobacterium phlei = experiment: Antimicrobial spectrum, MIC (Table 4); format: cell-based; settings: 3% glycerol nutrient agar for acid-fast bacteria, 37° C., 24 or 48 hours
[3] = system: Trichophyton mentagrophytes; experiment: Antimicrobial spectrum, MIC (Table 4); settings: Sabouraud.dextrose.agar, 27° C., 72 hours
Nocardia asteroides = experiment: Antimicrobial spectrum, MIC (Table 4); format: cell-based; settings: 37° C., 24 or 48 hours
Serratia marcescens = experiment: Antimicrobial spectrum, MIC (Table 4); format: cell-based; settings: 1% glucose nutrient agar, 37° C., 24 or 48 hours
[4] = system: Staphylococcus aureus Smith; experiment: Antimicrobial spectrum, MIC (Table 4); format: cell-based; settings: 1% glucose nutrient agar, 37° C., 24 or 48 hours
Aspergillus niger = experiment: Antimicrobial spectrum, MIC (Table 4); settings: Sabouraud.dextrose.agar, 27° C., 48 hours
Candida albicans = experiment: Antimicrobial spectrum, MIC (Table 4); settings: Sabouraud.dextrose.agar, 27° C., 48 hours
Micrococcus luteus = experiment: Antimicrobial spectrum, MIC (Table 4); format: cell-based; settings: 1% glucose nutrient agar, 37° C., 24 or 48 hours
Aspergillus oryzae = experiment: Antimicrobial spectrum, MIC (Table 4); settings: Sabouraud.dextrose.agar, 27° C., 48 hours
Bacillus subtilis = experiment: Antimicrobial spectrum, MIC (Table 4); format: cell-based; settings: 1% glucose nutrient agar, 37° C., 24 or 48 hours
Corynebacterium xerosis = experiment: Antimicrobial spectrum, MIC (Table 4); format: cell-based; settings: 1% glucose nutrient agar, 37° C., 24 or 48 hours
Salmonella typhimurium = experiment: Antimicrobial spectrum, MIC (Table 4); format: cell-based; settings: 1% glucose nutrient agar, 37° C., 24 or 48 hours
Klebsiella pneumoniae = experiment: Antimicrobial spectrum, MIC (Table 4); format: cell-based; settings: 1% glucose nutrient agar, 37° C., 24 or 48 hours
Staphylococcus albus = experiment: Antimicrobial spectrum, MIC (Table 4); format: cell-based; settings: 1% glucose nutrient agar, 37° C., 24 or 48 hours
Saccharomyces cerevisiae = experiment: Antimicrobial spectrum, MIC (Table 4); settings: Sabouraud.dextrose.agar, 27° C., 48 hours
Mycobacterium sp. 607 = experiment: Antimicrobial spectrum, MIC (Table 4); format: cell-based; settings: 3% glycerol nutrient agar for acid-fast bacteria, 37° C., 24 or 48 hours
[5] = system: Staphylococcus aureus 209P; experiment: Antimicrobial spectrum, MIC (Table 4); format: cell-based; settings: 1% glucose nutrient agar, 37° C., 24 or 48 hours
Brucella abortus = experiment: microbe, parasite or virus in culture; format: cell-based; settings: blood agar, 37° C., 24 or 48 hours
Escherichia coli = experiment: Antimicrobial spectrum, MIC (Table 4); format: cell-based; settings: 1% glucose nutrient agar, 37° C., 24 or 48 hours
Penicillium glaucum = experiment: Antimicrobial spectrum, MIC (Table 4); settings: Sabouraud.dextrose.agar, 27° C., 48 hours
Mucor mucedo = experiment: Antimicrobial spectrum, MIC (Table 4); settings: Sabouraud.dextrose.agar, 27° C., 48 hours
[6] = system: Staphylococcus salivarius; experiment: Antimicrobial spectrum, MIC (Table 4); format: cell-based; settings: 1% glucose nutrient agar, 37° C., 24 or 48 hours
Streptococcus pyogenes = experiment: Antimicrobial spectrum, MIC (Table 4); format: cell-based; settings: blood agar, 37° C., 24 or 48 hours
Streptococcus faecalis = experiment: Antimicrobial spectrum, MIC (Table 4); format: cell-based; settings: 1% glucose nutrient agar, 37° C., 24 or 48 hours
[7] = system: Streptococcus pyogenes 090R; experiment: Antimicrobial spectrum, MIC (Table 4); format: cell-based; settings: blood agar, 37° C., 24 or 48 hours

| SMILES | MIC [1] [µg/mL] | MIC (Bacillus cereus) [µg/mL] | MIC (Staphylococcus citreus) [µg/mL] | MIC [2] [µg/mL] | MIC (Mycobacterium avium) [µg/mL] | MIC (Pseudomonas aeruginosa) [µg/mL] | MIC (Rhodotorula glutinis) [µg/mL] | MIC (Mycobacterium phlei) [µg/mL] | MIC [3] [µg/mL] | MIC (Nocardia asteroides) [µg/mL] | MIC (Serratia marcescens) [µg/mL] | MIC [4] [µg/mL] | MIC (Aspergillus niger) [µg/mL] | MIC (Candida albicans) [µg/mL] | MIC (Micrococcus luteus) [µg/mL] | MIC (Aspergillus oryzae) [µg/mL] | MIC (Bacillus subtilis) [µg/mL] | MIC (Corynebacterium xerosis) [µg/mL] | MIC (Salmonella typhimurium) [µg/mL] | MIC (Klebsiella pneumoniae) [µg/mL] | further results |
| --- | --- | --- | --- | --- | --- | --- | --- | --- | --- | --- | --- | --- | --- | --- | --- | --- | --- | --- | --- | --- | --- |
| COC1=C(C)C(=O)C2=C(C1=O)[C@H](CNC(=O)C(C)=O)N1C[C@H]3C(=O)c4c(O)c(C)c(OC)c(O)c4[C@@H]([C@@H]1C2)N3C [saframycin D] | 0.195 (≈ 0.352 µM) | 100.0 (≈ 181 µM) | 50.0 (≈ 90.3 µM) | > 100.0 | 50.0 (≈ 90.3 µM) | > 100.0 | > 100.0 | 50.0 (≈ 90.3 µM) | > 100.0 | 50.0 (≈ 90.3 µM) | > 100.0 | 50.0 (≈ 90.3 µM) | > 100.0 | > 100.0 | 50.0 (≈ 90.3 µM) | > 100.0 | 50.0 (≈ 90.3 µM) | 6.25 (≈ 11.3 µM) | > 100.0 | 100.0 (≈ 181 µM) | MIC (Staphylococcus albus): 50.0 µg/mL (≈ 90.3 µM); MIC (Saccharomyces cerevisiae): > 100.0 µg/mL; Solubility (Solubility; acetone): Sparingly soluble; Solubility (Solubility; chloroform): Easily soluble; Solubility (Solubility; esters): Sparingly soluble; Solubility (Solubility; ethyl ether): Sparingly soluble; Solubility (Solubility; lower alcohols): Easily soluble; Solubility (Solubility; n-hexane): Insoluble; Solubility (Solubility; pyridine): Easily soluble; Solubility (Solubility; water): Insoluble; MIC (Mycobacterium sp. 607): 50.0 µg/mL (≈ 90.3 µM); MIC [5]: 25.0 µg/mL (≈ 45.2 µM); MIC (Brucella abortus): 25.0 µg/mL (≈ 45.2 µM); MIC (Escherichia coli): > 100.0 µg/mL; MIC (Penicillium glaucum): > 100.0 µg/mL; MIC (Mucor mucedo): > 100.0 µg/mL |
| COC1=C(C)C(=O)C2=C(C1=O)[C@@H]1[C@@H]3CC4=C(C(=O)C(OC)=C(C)C4=O)[C@H](CNC(=O)C(C)=O)N3C[C@H]([C@H]2OC)N1C [saframycin C] | 3.125 (≈ 5.51 µM) | 100.0 (≈ 176 µM) | 25.0 (≈ 44 µM) | > 100.0 | > 100.0 | > 100.0 | > 100.0 | > 100.0 | > 100.0 | 50.0 (≈ 88.1 µM) | > 100.0 | 6.25 (≈ 11 µM) | > 100.0 | > 100.0 | 6.25 (≈ 11 µM) | > 100.0 | 25.0 (≈ 44 µM) | 25.0 (≈ 44 µM) | > 100.0 | 50.0 (≈ 88.1 µM) | MIC [6]: > 100.0 µg/mL; MIC (Streptococcus pyogenes): 25.0 µg/mL (≈ 44 µM); MIC (Streptococcus faecalis): > 100.0 µg/mL; MIC (Staphylococcus albus): 25.0 µg/mL (≈ 44 µM); MIC [7]: 12.5 µg/mL (≈ 22 µM); MIC (Saccharomyces cerevisiae): > 100.0 µg/mL; Solubility (Solubility; acetone): Easily soluble; Solubility (Solubility; benzene): Easily soluble; Solubility (Solubility; chloroform): Easily soluble; Solubility (Solubility; esters): Easily soluble; Solubility (Solubility; ethyl ether): Sparingly soluble; Solubility (Solubility; lower alcohols): Easily soluble; Solubility (Solubility; n-hexane): Insoluble; Solubility (Solubility; water): Insoluble; MIC (Mycobacterium sp. 607): > 100.0 µg/mL; MIC [5]: 25.0 µg/mL (≈ 44 µM); MIC (Brucella abortus): 50.0 µg/mL (≈ 88.1 µM); MIC (Escherichia coli): > 100.0 µg/mL; MIC (Penicillium glaucum): > 100.0 µg/mL; MIC (Mucor mucedo): > 100.0 µg/mL |
